{
  "source": "paper PMC4076215",
  "about": "“Nickel(II) Complex of Polyhydroxybenzaldehyde N4-Thiosemicarbazone Exhibits Anti-Inflammatory Activity by Inhibiting NF-κB Transactivation” (PLoS ONE, 2014)",
  "key": {"ORAC antioxidant assay": {"assay": "ORAC antioxidant assay", "assay_type": "physicochemical", "protocol": "ORAC assay was performed based on reported procedures with slight modifications. Chemicals used such as fluorescein sodium salt, AAPH (2,2′-Azobis(2-methylpropionamidine) dihydrochloride), quercetin dehydrate and trolox ((±)-6-Hydroxy-2,5,7,8-tetramethylchromane-2-carboxylic acid) were purchased from Sigma-Aldrich. Compounds were diluted to a final concentration of 100 µg/ml, with total reaction volume of 200 µl. The assay was performed in a 96-well black microplate, with 25 µl of samples, standard (trolox), blank (solvent/PBS) or positive control (quercetin). Subsequently, 150 µl of working fluorescein solution was added to each well. The plate was incubated at 37°C for at least 5 min. Then, 25 µl of AAPH working solution was then added to the wells to make a total volume of 200 µl. […] Data were collected every 2 min for a duration of 2 h, and were analyzed by calculating the differences of area under fluorescence decay curve (AUC) of samples and blank. The values were expressed as Trolox equivalent (TE).\nROS may amplify inflammatory responses via up-regulation or activation of certain genes/transcription factors, such as NF-κB. […] Therefore, we conducted ORAC assays to investigate the antioxidant capacity of complex 5. The ORAC assay uses peroxyl radical as pro-oxidant and the antioxidant activity is quantified via area under curve (AUC). We included quercetin, a known antioxidant, as a positive control."}, "HeLa S3 cells": {"system": "HeLa S3 cells", "assay": "Cell proliferation (MTT) assay, HeLa S3", "conditions": "for IC50 (cell viability, MTT): HeLa S3 cells, 48 h treatment; for IC50: Homo sapiens, HeLa S3, 48 h, read-out: IC50 (cell viability, MTT)", "experimental": "(§1) A total number of 1.0×10^4 cells per well were seeded into a 96-well plate and incubated overnight at 37°C in 5% CO2. The next day, the cells were treated with a two-fold serial dilution of compounds. MTT assays were performed as described [27]. After 48 h, (4,5-dimethylthiazol-2-yl-2,5-diphenyltetrazoliumbromide) was added at 2 mg/ml. After 3 h of incubation at 37°C in 5% CO2, DMSO was added to dissolve the formazan crystals. The plates were then read in Chameleon multitechnology microplate reader (Hidex, Turku, Finland) at 570 nm absorbance. The ratio of the absorbance of treated cells to the absorbance of DMSO-treated control cells was determined as percentage cell viability.\n(§2) To examine whether synthesized Ni(II) thiosemicarbazone ligands or Ni(II)-phosphine complexes were cytotoxic, we treated RAW264.7 (leukemic monocyte macrophage) and HeLa S3 (cervical adenocarcinoma) cells with these compounds for 48 h. The cell viability was determined with MTT assays [33]."}, "RAW264.7 cells": {"system": "RAW264.7 cells", "assay": "Cell proliferation (MTT) assay, RAW264.7", "conditions": "for IC50 (cell viability, MTT): RAW264.7 cells, 48 h treatment; for IC50: Mus musculus, RAW264.7, 48 h, read-out: IC50 (cell viability, MTT)", "experimental": "as §1, §2"}, "[1]": {"system": "carrageenan-induced paw edema", "assay": "Carrageenan-induced paw edema mouse model", "assay_type": "in vivo, C57BL/6 mice", "conditions": "2.0 mg/kg i.p., 1 h after carrageenan; control 7.3±0.8 mm", "protocol": "Male C57BL/6 mice at age 8–12 weeks old were from Jackson Laboratories, USA. Mice were administrated intraperitoneally (i.p.) with two different doses of complex 5 (2.5 mg/kg and 5 mg/kg). Negative control groups were i.p. injected with 200 µl of vehicle (50% v/v ethanol). A standard drug 2 mg/kg dexamethasone (Sigma) was included in the study. After 1 h, paw edema was induced by injecting 50 µl of 1% carrageenan (Sigma) through the plantar tissue at the right hind paw of each mouse. The thickness of right paw of each mouse was measured at 1, 3 and 5 h after carrageenan was administered. Four animals per group were tested (n = 4). Quantification of right hind paw thickness were analyzed for statistical significance using Student's t-test. Animals were housed in individually ventilated cages in specific pathogen free facility, Animal Experimental Unit, University of Malaya. All efforts were made to minimize animal suffering and the number of animals used. At the end of the experiment, mice were euthanized by CO2 asphyxiation. Animal work was approved by the Faculty of Medicine Animal Care and Use Committee (FOMIACUC) at University of Malaya and reported according to ARRIVE guidelines.\nTo test the in vivo inhibitory effect of complex 5 on inflammation, we administrated two doses of complex 5 (2.5 mg/kg and 5.0 mg/kg) into C57BL/6 wild type mice through i.p. injection. For a positive control, we performed i.p. injection of 2.0 mg/kg dexamethasone into the mice. After 1 h, paw edema in the mice was induced by injecting 1% carrageenan to the right hind paw. The paw sizes were measured at 1, 3 and 5 h after edema induction. The edema formation at the mice paw was due to inflammatory response causing the accumulation of histamine, serotonin, prostaglandin and other secreted inflammatory mediators.\nMale C57BL/6 mice at age of 8-12 weeks old were non-injected or injected i.p. with 2.5 mg/kg or 5.0 mg/kg complex 5, whereas for positive controls, mice were injected i.p. with 2.0 mg/kg dexamethasone. After 1 h, acute inflammation was induced in the right hind paw of each mice by injecting 50 µl of carrageenan. The size of the paw were measured after (A) 1 h or, (B) 1, 3 and 5 h post carrageenan injection. Shown were mean ±SD (n = 4). Statistical analysis was performed with Student's t-test."}, "[2]": {"system": "NF-κB p65 nuclear translocation", "assay": "NF-κB p65 immunofluorescence staining, LPS-stimulated RAW264.7", "assay_type": "cell-based", "conditions": "RAW264.7, 25 µg/ml pre-treatment 4 h, LPS 1 h", "protocol": "NF-κB Activation Kits (Thermo Scientific) were used as previously described. Cells were pretreated with compounds for 4 h before being stimulated with lipopolysaccharide (LPS) ortumour necrosis factor α (TNFα) for 1 h. Cells were then fixed and permeabilized before probing with NF-κB p65 antibody for 1 h. Staining solution (containing DyLight 488 Goat Anti-Rabbit and Hoechst dye) was then added and incubated for 1 h. The plate with stained cells was evaluated using a Cellomics ArrayScan HCS Reader (Cellomics, PA, USA). Data were captured, extracted and analyzed with ArrayScan II Data Acquisition and Data Viewer version 3.0 (Cellomics).\nNF-κB acts as a central mediator of inflammatory responses and compounds that inhibit NF-κB activation are potential anti-inflammatory agents. To evaluate this, we performed immunofluorescence staining of NF-κB p65. […] In response to LPS stimulation, NF-κB p65 translocated from cytoplasm into the nucleus, implying NF-κB activation (Figure 3). […] Moreover, we observed that complex 6–8 required higher concentration (>50 µg/ml) to elicit similar inhibitory effect (data not shown).\nFigure 3 Effect of N4-substituteted thiosemicarbazone complexes on LPS-induced NF-κB nuclear transloction in RAW264.7 macrophage cells. Staining of Hoechst (nucleus) and NF-κB in RAW264.7 cells. […]"}},
  "data": [
    {"smiles": "Oc1cccc2c1[O][Ni-2]1([P+](c3ccccc3)(c3ccccc3)c3ccccc3)[S]C(Nc3ccccc3)=N[N+]1=C2", "note": "(stereo not drawn) [complex 7]", "values": [
      {"measurement": "Antioxidant capacity, Trolox equivalent", "setting": "ORAC antioxidant assay", "value": "9.37±1.14", "unit": "µM TE per 100 µM"},
      {"measurement": "IC50 (cell viability, MTT)", "setting": "HeLa S3 cells", "value": ">100", "unit": "µg/mL"},
      {"measurement": "IC50 (cell viability, MTT)", "setting": "RAW264.7 cells", "value": "42.44 ± 4.17", "unit": "µg/mL"}
    ]},
    {"smiles": "C[C@@H]1C[C@H]2[C@@H]3CCC4=CC(=O)C=C[C@]4(C)[C@@]3(F)[C@@H](O)C[C@]2(C)[C@@]1(O)C(=O)CO", "note": "[dexamethasone, reference compound]", "values": [
      {"measurement": "Paw size", "setting": "[1]", "value": "4.6±0.4", "unit": "mm"}
    ]},
    {"smiles": "CCNC(=S)N/N=C/c1cccc(O)c1O", "note": "[ligand 4]", "values": [
      {"measurement": "Antioxidant capacity, Trolox equivalent", "setting": "ORAC antioxidant assay", "value": "7.54±1.61", "unit": "µM TE per 100 µM"},
      {"measurement": "IC50", "setting": "HeLa S3 cells", "value": "87.2 ± 1.81", "unit": "µg/mL"},
      {"measurement": "IC50", "setting": "RAW264.7 cells", "value": "19.4 ± 1.07", "unit": "µg/mL"}
    ]},
    {"smiles": "Oc1cccc(/C=N/NC(=S)Nc2ccccc2)c1O", "note": "[ligand 3]", "values": [
      {"measurement": "Antioxidant capacity, Trolox equivalent", "setting": "ORAC antioxidant assay", "value": "9.71±0.77", "unit": "µM TE per 100 µM"},
      {"measurement": "IC50", "setting": "HeLa S3 cells", "value": "> 100", "unit": "µg/mL"},
      {"measurement": "IC50", "setting": "RAW264.7 cells", "value": "31.5 ± 1.82", "unit": "µg/mL"}
    ]},
    {"smiles": "O=c1c(O)c(-c2ccc(O)c(O)c2)oc2cc(O)cc(O)c12", "note": "[Quercetin, quercetin dehydrate, reference compound]", "values": [
      {"measurement": "Antioxidant capacity, Trolox equivalent", "setting": "ORAC antioxidant assay", "value": "24.41±0.35", "unit": "µM TE per 100 µM"}
    ]},
    {"smiles": "CNC(=S)NN=Cc1cccc(O)c1[O-].[Cl-].[Ni+2].c1ccc(P(c2ccccc2)c2ccccc2)cc1", "note": "[complex 6, (6-Hydroxy-2-{[2-(N-methylcarbamothiolyl)hydrazin-1-ylidene-[kappa]2N1,S]methyl}phenolato-[kappa]O1)(triphenylphosphane-[kappa]P)nickel(II) chloride]", "values": [
      {"measurement": "Antioxidant capacity, Trolox equivalent", "setting": "ORAC antioxidant assay", "value": "15.65±0.89", "unit": "µM TE per 100 µM"},
      {"measurement": "IC50 (cell viability, MTT)", "setting": "HeLa S3 cells", "value": "77.55 ± 1.56", "unit": "µg/mL"},
      {"measurement": "IC50 (cell viability, MTT)", "setting": "RAW264.7 cells", "value": "37.73 ± 3.62", "unit": "µg/mL"}
    ]},
    {"smiles": "CNC(=S)N/N=C/c1cccc(O)c1O", "note": "[ligand 2]", "values": [
      {"measurement": "Antioxidant capacity, Trolox equivalent", "setting": "ORAC antioxidant assay", "value": "8.23±0.43", "unit": "µM TE per 100 µM"},
      {"measurement": "IC50", "setting": "HeLa S3 cells", "value": "> 100", "unit": "µg/mL"},
      {"measurement": "IC50", "setting": "RAW264.7 cells", "value": "27.8 ± 0.96", "unit": "µg/mL"}
    ]},
    {"smiles": "NC(=S)N/N=C/c1cccc(O)c1O", "note": "[ligand 1]", "values": [
      {"measurement": "Antioxidant capacity, Trolox equivalent", "setting": "ORAC antioxidant assay", "value": "5.18±0.05", "unit": "µM TE per 100 µM"},
      {"measurement": "Inhibition of LPS-mediated NF-κB p65 nuclear translocation", "setting": "[2]", "value": "did not affect NF-κB translocation"},
      {"measurement": "IC50", "setting": "HeLa S3 cells", "value": "> 100", "unit": "µg/mL"},
      {"measurement": "IC50", "setting": "RAW264.7 cells", "value": "22.8 ± 1.67", "unit": "µg/mL"}
    ]},
    {"smiles": "CCNC1=N[N+]2=Cc3cccc(O)c3[O][Ni-2]2([P+](c2ccccc2)(c2ccccc2)c2ccccc2)[S]1", "note": "(stereo not drawn) [complex 8]", "values": [
      {"measurement": "Antioxidant capacity, Trolox equivalent", "setting": "ORAC antioxidant assay", "value": "13.34±1.49", "unit": "µM TE per 100 µM"},
      {"measurement": "IC50 (cell viability, MTT)", "setting": "HeLa S3 cells", "value": ">100", "unit": "µg/mL"},
      {"measurement": "IC50 (cell viability, MTT)", "setting": "RAW264.7 cells", "value": "56.31 ± 3.86", "unit": "µg/mL"}
    ]}
  ]
}
